Blank lines part the entries; values can stand above or below the compound they belong to. Activity calls are given as the source filed them. The rule behind the calls is not given here.
What was measured:
[1] = AUC (0 to 6 hrs) in rat at 10 mg/kg, po; format: ADME, organism-based; set-up: time < 6 hr, dose 10 mg/kg, route oral; details: plasma
Hepatitis C virus = test: Antiviral activity against HCV infected in human hepatoma cells assessed as inhibition of viral RNA replication after 3 days by real time PCR analysis; format: functional, organism-based, Hepacivirus hominis; details: 72 h
[2] = Inhibition of HCV genotype 1b C-terminal polyhistidine-tagged NS5B Cdelta21 RdRp expressed in Escherichia coli using DCoH75 as template assessed as incorporation of [33P]-CTP in polynucleotide sequence after 2 hrs by scintillation counting analysis; set-up: species or system Hepatitis C virus subtype 1b
Rattus norvegicus [3] = test: AUC (0 to 6 hrs) in rat assessed as 4-Fluoro-6-((7-fluoro-4-oxo-3,4-dihydroquinazolin-6-yl)methyl)-8-(2-oxo-1,2-dihydropyridin-3-yl)-6H-furo[2,3-e]indole-7-carboxylic acid at 10 mg/kg, po; format: ADME, organism-based, Plasma; set-up: time < 6 hr, dose 10 mg/kg, route oral; details: in vivo
Rattus norvegicus [4] = species on record: Rattus norvegicus; test: Ratio of drug level from liver to plasma in rat assessed as 4-Fluoro-6-((7-fluoro-4-oxo-3,4-dihydroquinazolin-6-yl)methyl)-8-(2-oxo-1,2-dihydropyridin-3-yl)-6H-furo[2,3-e]indole-7-carboxylic acid after 6 hrs; details: other tissue
[5] = Mutagenic activity in micronucleus (unknown origin); format: ADME
Salmonella typhimurium = test: Mutagenic activity in Salmonella typhimurium by mini Ames test; format: toxicity, organism-based; details: salmonella enterica subsp. enterica serovar typhimurium
[6] = Clearance in iv dosed monkey; format: ADME, organism-based, Macaca mulatta; details: rhesus monkey, in vivo
[7] = Clearance in iv dosed rat; format: ADME, organism-based; details: in vivo
[8] = Clearance in iv dosed dog; format: ADME, organism-based, Canis lupus familiaris; details: in vivo
[9] = Oral bioavailability in dog; format: ADME, organism-based, Canis lupus familiaris; details: in vivo
[10] = Oral bioavailability in monkey; format: ADME, organism-based, Macaca mulatta; details: rhesus monkey, in vivo
[11] = Oral bioavailability in rat; format: ADME, organism-based; details: in vivo
[12] = Half life in monkey at 1 mg/kg, iv; format: ADME, organism-based, Macaca mulatta; set-up: dose 1 mg/kg, route intravenous; details: rhesus monkey, in vivo
[13] = Half life in rat at 3 mg/kg, iv; format: ADME, organism-based; set-up: dose 3 mg/kg, route intravenous; details: in vivo
[14] = Half life in dog at 1 mg/kg, iv; format: ADME, organism-based, Canis lupus familiaris; set-up: dose 1 mg/kg, route intravenous; details: in vivo
[15] = Cmax in dog; format: ADME, organism-based, Canis lupus familiaris; details: in vivo
[16] = Cmax in monkey; format: ADME, organism-based, Macaca mulatta; details: rhesus monkey, in vivo
[17] = Cmax in rat; format: ADME, organism-based; details: in vivo
[18] = AUC (0 to 24 hrs) in dog at 3 mg/kg, po; format: ADME, organism-based, Canis lupus familiaris; set-up: time < 24 hr, dose 3 mg/kg, route oral; details: plasma
[19] = AUC (0 to 24 hrs) in monkey at 3 mg/kg, po; format: ADME, organism-based, Macaca mulatta; set-up: time < 24 hr, dose 3 mg/kg, route oral; details: rhesus monkey, plasma
[20] = AUC (0 to 24 hrs) in rat at 10 mg/kg, po; format: ADME, organism-based; set-up: time < 24 hr, dose 10 mg/kg, route oral; details: plasma
[21] = tested on: RNA-directed RNA polymerase (Hepacivirus hominis), O39930 [G554D]; test: Inhibition of HCV NS5B RdRp G554D mutant palm allosteric site
RNA-directed RNA polymerase (Hepacivirus hominis), O39930 [G554D], sequence (O39930 entry or part of it G554D): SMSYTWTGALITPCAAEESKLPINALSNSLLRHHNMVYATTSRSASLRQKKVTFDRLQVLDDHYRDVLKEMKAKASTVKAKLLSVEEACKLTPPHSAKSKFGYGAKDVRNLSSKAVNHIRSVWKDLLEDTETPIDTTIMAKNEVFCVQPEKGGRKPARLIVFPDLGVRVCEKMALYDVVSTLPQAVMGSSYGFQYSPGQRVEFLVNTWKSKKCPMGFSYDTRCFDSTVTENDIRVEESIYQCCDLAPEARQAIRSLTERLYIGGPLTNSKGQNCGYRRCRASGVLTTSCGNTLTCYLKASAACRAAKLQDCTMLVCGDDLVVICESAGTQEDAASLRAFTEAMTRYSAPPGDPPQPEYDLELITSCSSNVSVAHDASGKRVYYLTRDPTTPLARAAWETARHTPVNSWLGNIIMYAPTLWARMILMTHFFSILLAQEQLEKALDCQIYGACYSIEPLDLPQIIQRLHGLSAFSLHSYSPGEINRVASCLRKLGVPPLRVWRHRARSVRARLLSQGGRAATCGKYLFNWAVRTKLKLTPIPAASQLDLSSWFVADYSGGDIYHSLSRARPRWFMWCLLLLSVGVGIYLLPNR

[22] = tested on: RNA-directed RNA polymerase (Hepacivirus hominis), O39930 [M414T]; test: Inhibition of HCV NS5B RdRp M414T mutant palm allosteric site
RNA-directed RNA polymerase (Hepacivirus hominis), O39930 [M414T], sequence (O39930 entry or part of it M414T): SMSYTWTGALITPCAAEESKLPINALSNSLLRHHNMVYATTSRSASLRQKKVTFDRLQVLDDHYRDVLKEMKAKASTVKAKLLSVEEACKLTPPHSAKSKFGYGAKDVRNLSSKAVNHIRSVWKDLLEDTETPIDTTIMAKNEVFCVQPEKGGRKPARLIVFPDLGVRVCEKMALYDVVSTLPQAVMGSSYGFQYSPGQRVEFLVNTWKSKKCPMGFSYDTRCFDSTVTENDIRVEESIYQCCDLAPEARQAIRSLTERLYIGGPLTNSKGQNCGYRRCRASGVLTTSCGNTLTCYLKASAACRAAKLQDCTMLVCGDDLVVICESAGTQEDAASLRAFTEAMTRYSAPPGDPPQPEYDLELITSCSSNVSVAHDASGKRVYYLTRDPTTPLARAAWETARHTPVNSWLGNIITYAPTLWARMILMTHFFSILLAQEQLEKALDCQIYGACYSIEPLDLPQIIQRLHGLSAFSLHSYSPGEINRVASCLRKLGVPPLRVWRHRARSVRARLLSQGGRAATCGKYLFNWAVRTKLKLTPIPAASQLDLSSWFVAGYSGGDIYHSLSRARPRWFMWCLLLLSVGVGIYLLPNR

[23] = tested on: RNA-directed RNA polymerase (Hepacivirus hominis), O39930 [C316Y]; test: Inhibition of HCV NS5B RdRp C316Y mutant palm allosteric site
RNA-directed RNA polymerase (Hepacivirus hominis), O39930 [C316Y], sequence (O39930 entry or part of it C316Y): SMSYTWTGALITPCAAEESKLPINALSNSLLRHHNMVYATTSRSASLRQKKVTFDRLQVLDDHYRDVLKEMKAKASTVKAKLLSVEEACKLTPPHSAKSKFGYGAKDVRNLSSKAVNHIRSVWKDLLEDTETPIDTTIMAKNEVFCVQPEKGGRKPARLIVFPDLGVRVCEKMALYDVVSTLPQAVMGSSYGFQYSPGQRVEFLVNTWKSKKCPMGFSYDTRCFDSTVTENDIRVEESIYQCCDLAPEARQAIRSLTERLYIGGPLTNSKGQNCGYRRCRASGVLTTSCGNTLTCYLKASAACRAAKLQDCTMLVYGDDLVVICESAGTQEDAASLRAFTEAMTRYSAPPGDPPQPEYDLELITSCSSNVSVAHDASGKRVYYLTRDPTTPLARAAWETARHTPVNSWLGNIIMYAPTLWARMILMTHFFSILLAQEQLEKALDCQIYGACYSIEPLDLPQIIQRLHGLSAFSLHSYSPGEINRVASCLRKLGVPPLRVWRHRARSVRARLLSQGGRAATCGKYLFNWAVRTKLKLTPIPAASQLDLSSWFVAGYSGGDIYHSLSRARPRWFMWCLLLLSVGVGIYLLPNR

[24] = Inhibition of HCV genotype 4a C-terminal polyhistidine-tagged NS5B Cdelta21 RdRp expressed in Escherichia coli using DCoH75 as template assessed as incorporation of [33P]-CTP in polynucleotide sequence after 2 hrs by scintillation counting analysis; set-up: species or system Hepatitis C virus subtype 4a
[25] = Inhibition of HCV genotype 3a C-terminal polyhistidine-tagged NS5B Cdelta21 RdRp expressed in Escherichia coli using DCoH75 as template assessed as incorporation of [33P]-CTP in polynucleotide sequence after 2 hrs by scintillation counting analysis; set-up: species or system Hepatitis C virus subtype 3a
[26] = Inhibition of HCV genotype 2a C-terminal polyhistidine-tagged NS5B Cdelta21 RdRp expressed in Escherichia coli using DCoH75 as template assessed as incorporation of [33P]-CTP in polynucleotide sequence after 2 hrs by scintillation counting analysis; set-up: species or system Hepatitis C virus subtype 2a
[27] = Inhibition of HCV genotype 1a C-terminal polyhistidine-tagged NS5B Cdelta21 RdRp expressed in Escherichia coli using DCoH75 as template assessed as incorporation of [33P]-CTP in polynucleotide sequence after 2 hrs by scintillation counting analysis; set-up: species or system Hepatitis C virus subtype 1a
[28] = tested on: RNA-directed RNA polymerase (Hepacivirus hominis), O39930 [G554D]; test: Inhibition of HCV NS5B RdRp G554D mutant active site
[29] = tested on: RNA-directed RNA polymerase (Hepacivirus hominis), O39930 [M414T]; test: Inhibition of HCV NS5B RdRp M414T mutant active site
[30] = tested on: RNA-directed RNA polymerase (Hepacivirus hominis), O39930 [C316Y]; test: Inhibition of HCV NS5B RdRp C316Y mutant active site

SMILES: CCc1ccc2c(c1)c(-c1ccc[nH]c1=O)c(C(=O)NS(=O)(=O)C1CC1)n2Cc1cc(O)ccc1F
EC50 (Hepatitis C virus): 100 nM | IC50 [2]: 5 nM

SMILES: Cc1ccc2c(c1)c(-c1ccc[nH]c1=O)c(C(=O)NS(=O)(=O)C1CC1)n2Cc1cc(C(N)=O)ccc1F
IC50 [2]: 4 nM

SMILES: CCc1ccc2c(c1)c(-c1ccc[nH]c1=O)c(C(=O)NS(=O)(=O)C1CC1)n2Cc1cc(F)ccc1F
EC50 (Hepatitis C virus): 40 nM | IC50 [2]: 3 nM

SMILES: Cc1cc2c(-c3ccc[nH]c3=O)c(C(=O)NS(=O)(=O)C3CC3)n(Cc3cc(C(N)=O)ccc3F)c2cc1F
EC50 (Hepatitis C virus): 50 nM | IC50 [2]: 4 nM

SMILES: CCOC(=O)c1c(-c2ccc[nH]c2=O)c2c3occc3c(F)cc2n1Cc1cc2c(=O)n(COC(=O)C(C)(C)C)cnc2cc1F
EC50 (Hepatitis C virus): 69 nM | IC50 [2]: 400 nM

SMILES: CCc1ccc2c(c1)c(-c1ccc[nH]c1=O)c(C(=O)NS(=O)(=O)C1CC1)n2Cc1cc(C#N)ccc1F
EC50 (Hepatitis C virus): 80 nM | IC50 [2]: 7 nM

SMILES: O=C(O)c1c(-c2ccc[nH]c2=O)c2c3occc3c(F)cc2n1Cc1cc2c(=O)[nH]cnc2cc1F
Activity [5]: Non-toxic | Activity (Salmonella typhimurium): Non-toxic | clearance [6]: 0.6 mL/min/kg | clearance [7]: 0.2 mL/min/kg | clearance [8]: 11 mL/min/kg | bioavailability [9]: 4% | bioavailability [10]: 5% | bioavailability [11]: 0.7% | half-life [12]: 8.9 h | half-life [13]: 9.4 h | half-life [14]: 3.2 h | Cmax [15]: 100 nM | Cmax [16]: 800 nM | Cmax [17]: 1400 nM | AUC(0-t) at 24 h [18]: 0.4 µM·h | AUC(0-t) at 24 h [19]: 8 µM·h | AUC(0-t) at 24 h [20]: 10 µM·h | inhibition [21]: inactive | inhibition [22]: inactive | inhibition [23]: inactive | IC50 [24]: > 5000 nM | IC50 [25]: > 5000 nM | IC50 [26]: > 5000 nM | IC50 [27]: 7 nM | AUC(0-t) at 6 h [1]: 4.3 µM·h | EC50 (Hepatitis C virus): 6 nM | IC50 [2]: 5 nM | inhibition [28]: Active | inhibition [29]: Active | inhibition [30]: Active

SMILES: NC(=O)c1ccc(F)c(Cn2c(C(=O)NS(=O)(=O)C3CC3)c(-c3ccc[nH]c3=O)c3c4occc4c(F)cc32)c1
AUC(0-t) at 6 h [1]: 0.21 µM·h | EC50 (Hepatitis C virus): 10 nM | IC50 [2]: 5 nM

SMILES: NC(=O)c1ccc(F)c(Cn2c(C(=O)NS(=O)(=O)C3CC3)c(-c3ccc[nH]c3=O)c3cc(C(F)(F)F)ccc32)c1
EC50 (Hepatitis C virus): 170 nM | IC50 [2]: 6 nM

SMILES: CCc1ccc2c(c1)c(-c1ccc[nH]c1=O)c(C(=O)NS(=O)(=O)C1CC1)n2Cc1cc(S(C)(=O)=O)ccc1F
EC50 (Hepatitis C virus): 80 nM | IC50 [2]: 8 nM

SMILES: CN(C)CCCCOC(=O)c1c(-c2ccc[nH]c2=O)c2c3occc3c(F)cc2n1Cc1cc2c(=O)[nH]cnc2cc1F
AUC (Rattus norvegicus [3]): 0.79 µM·h | EC50 (Hepatitis C virus): 14 nM | IC50 [2]: 75 nM

SMILES: CCc1cc2c(-c3ccc[nH]c3=O)c(C(=O)NS(=O)(=O)C3CC3)n(Cc3cc(C(N)=O)ccc3F)c2cc1F
EC50 (Hepatitis C virus): 60 nM | IC50 [2]: 5 nM

SMILES: NC(=O)c1ccc(F)c(Cn2c(C(=O)NS(=O)(=O)C3CC3)c(-c3ccc[nH]c3=O)c3cc(C(F)(F)F)c(F)cc32)c1
EC50 (Hepatitis C virus): 150 nM | IC50 [2]: 8 nM

SMILES: CC(C)(C)C(=O)OCn1cccc(-c2c(C(=O)O)n(Cc3cc4c(=O)[nH]cnc4cc3F)c3cc(F)c4ccoc4c23)c1=O
EC50 (Hepatitis C virus): 67 nM | IC50 [2]: 51 nM

SMILES: CCc1ccc2c(c1)c(-c1ccc[nH]c1=O)c(C(=O)NS(=O)(=O)C1CC1)n2Cc1cc(C(N)=O)ccc1F
EC50 (Hepatitis C virus): 30 nM | IC50 [2]: 12 nM

SMILES: CCc1ccc2c(c1)c(-c1ccc[nH]c1=O)c(C(=O)NS(=O)(=O)C1CC1)n2Cc1cc(S(N)(=O)=O)ccc1F
EC50 (Hepatitis C virus): 80 nM | IC50 [2]: 5 nM

Further lines, results first:

AUC(0-t) at 6 h [1]: 8.3 µM·h | EC50 (Hepatitis C virus): 6 nM | IC50 [2]: 4 nM
SMILES: O=C(O)c1c(-c2ccc[nH]c2=O)c2c3occc3c(F)cc2n1Cc1cc2c(=O)[nH]c(=O)[nH]c2cc1F

AUC (Rattus norvegicus [3]): 2.3 µM·h | EC50 (Hepatitis C virus): 11 nM | IC50 [2]: 110 nM | Ratio (Rattus norvegicus [4]): 0.4
SMILES: CN(C)CCCOC(=O)c1c(-c2ccc[nH]c2=O)c2c3occc3c(F)cc2n1Cc1cc2c(=O)[nH]cnc2cc1F

AUC(0-t) at 6 h [1]: 8.8 µM·h | EC50 (Hepatitis C virus): 70 nM | IC50 [2]: 20 nM
SMILES: CC(=O)c1ccc(F)c(Cn2c(C(=O)O)c(-c3ccc[nH]c3=O)c3c4occc4c(F)cc32)c1

EC50 (Hepatitis C virus): 2000 nM | IC50 [2]: 2000 nM
SMILES: O=C(O)c1c(-c2ccc[nH]c2=O)c2c3occc3c(F)cc2n1Cc1cc2[nH]c(=O)oc2cc1F

AUC(0-t) at 6 h [1]: 0.17 µM·h | EC50 (Hepatitis C virus): 250 nM | IC50 [2]: 3 nM
SMILES: Cn1cnc2cc(F)c(Cn3c(C(=O)O)c(-c4ccc[nH]c4=O)c4c5occc5c(F)cc43)cc2c1=O

EC50 (Hepatitis C virus): 10 nM | IC50 [2]: 13 nM
SMILES: CC(C)(C)C(=O)OCn1cnc2cc(F)c(Cn3c(C(=O)O)c(-c4ccc[nH]c4=O)c4c5occc5c(F)cc43)cc2c1=O

AUC(0-t) at 6 h [1]: 0.02 µM·h | EC50 (Hepatitis C virus): 7 nM | IC50 [2]: 7 nM
SMILES: Nc1nc2cc(F)c(Cn3c(C(=O)O)c(-c4ccc[nH]c4=O)c4c5occc5c(F)cc43)cc2c(=O)[nH]1

EC50 (Hepatitis C virus): 300 nM | IC50 [2]: 6 nM
SMILES: Cn1c(=O)[nH]c(=O)c2cc(Cn3c(C(=O)O)c(-c4ccc[nH]c4=O)c4c5occc5c(F)cc43)c(F)cc21

IC50 [2]: 4 nM
SMILES: NC(=O)c1ccc(F)c(Cn2c(C(=O)O)c(-c3ccc[nH]c3=O)c3c4occc4c(F)cc32)c1

AUC (Rattus norvegicus [3]): 0.22 µM·h | EC50 (Hepatitis C virus): 22 nM | IC50 [2]: 9 nM
SMILES: CCOC(=O)c1c(-c2ccc[nH]c2=O)c2c3occc3c(F)cc2n1Cc1cc2c(=O)[nH]cnc2cc1F

AUC(0-t) at 6 h [1]: 0.85 µM·h | EC50 (Hepatitis C virus): 20 nM | IC50 [2]: 4 nM
SMILES: Cc1nc2cc(F)c(Cn3c(C(=O)O)c(-c4ccc[nH]c4=O)c4c5occc5c(F)cc43)cc2c(=O)[nH]1

AUC(0-t) at 6 h [1]: 4 µM·h | EC50 (Hepatitis C virus): 10 nM | IC50 [2]: 7 nM
SMILES: O=C(O)c1c(-c2ccc[nH]c2=O)c2c3occc3c(F)cc2n1Cc1cc2[nH]c(=O)[nH]c2cc1F

EC50 (Hepatitis C virus): 700 nM | IC50 [2]: 5 nM
SMILES: O=C(O)c1ccc(F)c(Cn2c(C(=O)O)c(-c3ccc[nH]c3=O)c3c4occc4c(F)cc32)c1

Source: ChEMBL document CHEMBL3124829, “Discovery of SCH 900188: A Potent Hepatitis C Virus NS5B Polymerase Inhibitor Prodrug As a Development Candidate” (ACS Med Chem Lett, 2014)
